The nature of assay [1]: Compound was evaluated for protection against cisplatin-induced emesis by measuring number of retches in ferrets when administered intravenously at 0.03 mg/kg. It counts as functional, Mustela putorius furo. The settings on record: route intravenous.
A short description of assay [2]: Compound was evaluated for protection against cisplatin-induced emesis by measuring number of retches in ferrets when administered intravenously at 0.1 mg/kg. The settings on record: route intravenous. It counts as functional, Mustela putorius furo.
Assay [3] in a line: Compound was evaluated for protection against cisplatin-induced emesis by measuring number of emetic episodes in ferrets when administered intravenously at 0.03 mg/kg. It counts as functional, Mustela putorius furo. The settings on record: route intravenous.
The nature of assay [4]: Compound was evaluated for protection against cisplatin-induced emesis by measuring number of emetic episodes in ferrets when administered intravenously at 0.1 mg/kg. The settings on record: route intravenous. It counts as functional, Mustela putorius furo.
Assay [5] deals with Rattus norvegicus. The assay is described as follows: Inhibitory activity against Bezold-jarisch functional assay, inducing a transient bradycardia upon intravenous administration of 5-hydroxytryptamine-(10 ug/kg) in anesthetized rats. The following applies: read-out: ID50 (the source's name).
Assay [6] can be described thus: Compound was evaluated for protection against cisplatin-induced emesis by measuring number of retches in ferrets when administered intravenously at 0.01 mg/kg. The assay is classed as functional, Mustela putorius furo. The settings on record: route intravenous.
Assay [7] can be described thus: Compound was evaluated for protection against cisplatin-induced emesis by measuring number of retches in ferrets when administered intravenously at 0.1 mg/kg. It counts as functional, Mustela putorius furo. The following applies: route intravenous.
Assay [8] in a line: Compound was evaluated for protection against cisplatin-induced emesis by measuring number of retches in ferrets when administered intravenously at 0.3 mg/kg. The assay is classed as functional, Mustela putorius furo. The settings on record: route intravenous.
Assay [9] can be described thus: Compound was evaluated for protection against cisplatin-induced emesis by measuring number of retches in ferrets when administered perorally at 0.03 mg/kg. It counts as functional, Mustela putorius furo. The settings on record: route oral.
Assay [10] is described as follows: Compound was evaluated for protection against cisplatin-induced emesis by measuring number of retches in ferrets when administered perorally at 0.1 mg/kg. The following applies: route oral. The assay is classed as functional, Mustela putorius furo.
Assay [11] is described as follows: Compound was evaluated for protection against cisplatin-induced emesis by measuring number of retches in ferrets when administered perorally at 0.3 mg/kg. It counts as functional, Mustela putorius furo. The following applies: route oral.
A short description of assay [12]: Compound was evaluated for protection against cisplatin-induced emesis by measuring number of emetic episodes in ferrets when administered perorally at 0.03 mg/kg. The assay is classed as functional, Mustela putorius furo. The settings on record: route oral.
Assay [13] can be described thus: Compound was evaluated for protection against cisplatin-induced emesis by measuring number of emetic episodes in ferrets when administered perorally at 0.1 mg/kg. The assay is classed as functional, Mustela putorius furo. The following applies: route oral.
Assay [14] is described as follows: Compound was evaluated for protection against cisplatin-induced emesis by measuring number of emetic episodes in ferrets when administered perorally at 0.3 mg/kg. The assay is classed as functional, Mustela putorius furo. The settings on record: route oral.
Assay [15] in a line: Compound was evaluated for protection against cisplatin-induced emesis by measuring number of emetic episodes in ferrets when administered intravenously at 0.3 mg/kg. The following applies: route intravenous. The assay is classed as functional, Mustela putorius furo.
Assay [16] is described as follows: Compound was evaluated for protection against cisplatin-induced emesis by measuring number of emetic episodes in ferrets when administered intravenously at 0.01 mg/kg. The settings on record: route intravenous. The assay is classed as functional, Mustela putorius furo.

Some results are limits rather than exact numbers.

26 molecules from ChEMBL document CHEMBL1125546, “Novel 5-HT3 antagonists. Isoquinolinones and 3-aryl-2-pyridones” (J Med Chem, 1992) can be followed below.

In the case of `Cc1[nH]cnc1Cn1cccc(-c2cccs2)c1=O`, the No. of retches in assay [1] is given as 90.8; in assay [2], 22. Besides, the “No. of emetic episodes” value is reported as 6 in assay [3] and 1.3 in [4]. The ED50 in [5] amounted to 0.27 µg/kg. For the molecule `Cc1cc2c(=O)n(Cc3[nH]cnc3C)ccc2cc1N`, the ED50 in assay [5] turned out to be 4.1 µg/kg.

In the case of `CCn1c2ccccc2c2c3c(=O)n(Cc4[nH]cnc4C)ccc3ccc21`, in assay [5], the ED50 is 43.9 µg/kg. On the same count and under the same terms, then `Cc1[nH]cnc1Cn1cccc(-c2cccc([N+](=O)[O-])c2)c1=O`, with above 100 µg/kg; and `Cc1[nH]cnc1Cn1cccc(-c2cc3ccccc3s2)c1=O`, with above 100 µg/kg; and `Cc1[nH]cnc1Cn1cccc(-c2ccc(Br)s2)c1=O`, with 7.49 µg/kg.

For `Cc1ccsc1-c1cccn(Cc2[nH]cnc2C)c1=O`, the ED50 in [5] stood at 0.44 µg/kg. For `COc1ccccc1-c1cccn(Cc2[nH]cnc2C)c1=O`, the ED50 in assay [5] is 18.2 µg/kg. On to `Cc1[nH]cnc1Cn1cccc(-c2ccccc2)c1=O`, for which, in [5], the ED50 worked out at 12 µg/kg. For `Cc1cccc(-c2cccn(Cc3[nH]cnc3C)c2=O)c1`, the ED50 in assay [5] worked out at 9.03 µg/kg. As to `Cc1[nH]cnc1Cn1ccc2cc(N)c(Cl)cc2c1=O`, the No. of retches is given as 116.8 in assay [6]; 71 in assay [1]; 26.5 in assay [7]; 18.8 in assay [8]; 142.2 in [9]; 18.6 in assay [10]. Besides, in assay [11], the No. of retches stood at 3.5. In addition, the “No. of emetic episodes” value in assay [3] turned out to be 4.8; in assay [4] it was 1.3; in assay [12], 8.8; in assay [13], 1.2; in [14], 0.2; in assay [15], 0.8. The “No. of emetic episodes” value in [16] is listed as 10. For the same molecule, in assay [5], the ED50 is 0.36 µg/kg. Consider `Cc1[nH]cnc1Cn1cccc(-c2ccco2)c1=O`, for which, in assay [5], the ED50 was 0.9 µg/kg. In the case of `COc1ccc2c(ccc3ccn(Cc4[nH]cnc4C)c(=O)c32)c1`, in [5], the ED50 worked out at 56.6 µg/kg. Regarding `Cc1[nH]cnc1Cn1ccc2c(O)nc3ccccc3c2c1=O`, the ED50 in assay [5] was 0.05 µg/kg. On the same count and under the same terms, then `Cc1[nH]cnc1Cn1cnc2ccccc2c1=O`, with above 100 µg/kg. Turning to `Cc1[nH]cnc1Cn1ccc2c(O)cc3ccccc3c2c1=O`, in assay [5], the ED50 was found to be 0.62 µg/kg.

Regarding `COc1cc(N)c(Cl)cc1C(=O)NCc1[nH]cnc1C`, in [5], the ED50 came out at 3.53 µg/kg. As to `Cc1nc[nH]c1Cn1ccc2c(C(=O)N(C)C)cc3ccccc3c2c1=O`, the ED50 in [5] turned out to be 7.46 µg/kg. For `Cc1[nH]cnc1Cn1ccc2ccccc2c1=O`, the ED50 in assay [5] was 38.7 µg/kg. Take `Cc1[nH]cnc1Cn1cccc(-c2cccc(Cl)c2)c1=O`: the ED50 in assay [5] was determined as 10 µg/kg. On to `Cc1[nH]cnc1Cn1ccc2ccc(Cl)cc2c1=O`, for which the ED50 in assay [5] amounted to 25.5 µg/kg.

`Cc1[nH]cnc1Cn1ccc2c3ccccc3c3ccccc3c2c1=O`: in assay [5], the ED50 is 6.95 µg/kg. Consider `Cc1[nH]cnc1Cn1ccc2nc3ccccc3cc2c1=O`, for which, in assay [5], the ED50 came out at 19.5 µg/kg.

`Cc1[nH]cnc1Cn1ccc2c(c1=O)-c1ccsc1CC2`: the ED50 in [5] was determined as 2.78 µg/kg. In the case of `COc1cccc(-c2cccn(Cc3[nH]cnc3C)c2=O)c1`, in assay [5], the ED50 was 26.7 µg/kg. On the same count and under the same terms, the value for `Cc1[nH]cnc1Cn1ccc2cccc(N)c2c1=O` was 53.1 µg/kg.
